#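 Cells were grown in 96-well plates and exposed to each compound for 48 hours at five concentrations; endpoints were interpolated linearly between bracketing concentrations, or set to the highest concentration if not reached. Definition used: TGI = concentration required for complete inhibition of growth.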
# Tests used:
# Assay in all cases: inhibition of tumour cell growth, NCI panel, 48 h
# 786-0 renal = system: 786-0 renal
# A498 renal = system: A498 renal
# A549 NSCLC = system: A549 NSCLC
# ACHN renal = system: ACHN renal
# BT-549 breast = system: BT-549 breast
# CAKI-1 renal = system: CAKI-1 renal
# COLO 205 colon = system: COLO 205 colon
# DU-145 prostate = system: DU-145 prostate
# EKVX NSCLC = system: EKVX NSCLC
# HCC-2998 colon = system: HCC-2998 colon
# HCT-116 colon = system: HCT-116 colon
# HCT-15 colon = system: HCT-15 colon
# HOP-62 NSCLC = system: HOP-62 NSCLC
# HOP-92 NSCLC = system: HOP-92 NSCLC
# HS 578T breast = system: HS 578T breast
# HT29 colon = system: HT29 colon
# IGROV1 ovarian = system: IGROV1 ovarian
# K-562 leukemia = system: K-562 leukemia
# KM12 colon = system: KM12 colon
# LOX IMVI melanoma = system: LOX IMVI melanoma
# M14 melanoma = system: M14 melanoma
# MALME-3M melanoma = system: MALME-3M melanoma
# MCF7 breast = system: MCF7 breast
# MDA-MB-231 breast = system: MDA-MB-231 breast
# MDA-MB-435 = system: MDA-MB-435
# MDA-N = system: MDA-N
# MOLT-4 leukemia = system: MOLT-4 leukemia
# NCI-H226 lung = system: NCI-H226 lung
# NCI-H23 lung = system: NCI-H23 lung
# NCI-H460 lung = system: NCI-H460 lung
# NCI-H522 lung = system: NCI-H522 lung
# NCI/ADR-RES ovarian = system: NCI/ADR-RES ovarian
# OVCAR-3 ovarian = system: OVCAR-3 ovarian
# OVCAR-4 ovarian = system: OVCAR-4 ovarian
# OVCAR-5 ovarian = system: OVCAR-5 ovarian
# OVCAR-8 ovarian = system: OVCAR-8 ovarian
# PC-3 prostate = system: PC-3 prostate
# RPMI-8226 leukemia = system: RPMI-8226 leukemia
# RXF 393 renal = system: RXF 393 renal
# SF-268 CNS = system: SF-268 CNS
# SF-295 CNS = system: SF-295 CNS
# SF-539 CNS = system: SF-539 CNS
# SK-MEL-2 melanoma = system: SK-MEL-2 melanoma
# SK-MEL-28 melanoma = system: SK-MEL-28 melanoma
# SK-MEL-5 melanoma = system: SK-MEL-5 melanoma
# SK-OV-3 ovarian = system: SK-OV-3 ovarian
# SN12C renal = system: SN12C renal
# SNB-19 CNS = system: SNB-19 CNS
# SNB-75 CNS = system: SNB-75 CNS
# SR leukemia = system: SR leukemia
# SW-620 colon = system: SW-620 colon
# T-47D breast = system: T-47D breast
# TK-10 renal = system: TK-10 renal
# U251 CNS = system: U251 CNS
# UACC-257 melanoma = system: UACC-257 melanoma
# UACC-62 melanoma = system: UACC-62 melanoma
# UO-31 renal = system: UO-31 renal
# HL-60(TB) leukemia = system: HL-60(TB) leukemia
# CCRF-CEM leukemia = system: CCRF-CEM leukemia
structure (smiles),measurement,setting,value
C[C@@]12C=CC3C/C(=N\C(N)=S)C=C(CCCC4OCCO4)[C@]3(CC1)C2 (stereo not given in full),TGI,786-0 renal,57.1 µM
same,TGI,A498 renal,33.1 µM
same,TGI,A549 NSCLC,59.7 µM
same,TGI,ACHN renal,92.2 µM
same,TGI,BT-549 breast,51.9 µM
same,TGI,CAKI-1 renal,69.9 µM
same,TGI,COLO 205 colon,26 µM
same,TGI,DU-145 prostate,78.6 µM
same,TGI,EKVX NSCLC,40.6 µM
same,TGI,HCC-2998 colon,34.2 µM
same,TGI,HCT-116 colon,26.8 µM
same,TGI,HCT-15 colon,53.6 µM
same,TGI,HOP-62 NSCLC,92.3 µM
same,TGI,HOP-92 NSCLC,> 100 µM
same,TGI,HS 578T breast,72.5 µM
same,TGI,HT29 colon,25.4 µM
same,TGI,IGROV1 ovarian,37.9 µM
same,TGI,K-562 leukemia,> 100 µM
same,TGI,KM12 colon,> 100 µM
same,TGI,LOX IMVI melanoma,31.1 µM
same,TGI,M14 melanoma,30.9 µM
same,TGI,MALME-3M melanoma,37.6 µM
same,TGI,MCF7 breast,26.4 µM
same,TGI,MDA-MB-231 breast,43.1 µM
same,TGI,MDA-MB-435,45.5 µM
same,TGI,MDA-N,33.9 µM
same,TGI,MOLT-4 leukemia,59.2 µM
same,TGI,NCI-H226 lung,55 µM
same,TGI,NCI-H23 lung,58.5 µM
same,TGI,NCI-H460 lung,32 µM
same,TGI,NCI-H522 lung,22.9 µM
same,TGI,NCI/ADR-RES ovarian,54.3 µM
same,TGI,OVCAR-3 ovarian,39.3 µM
same,TGI,OVCAR-4 ovarian,99.2 µM
same,TGI,OVCAR-5 ovarian,33.3 µM
same,TGI,OVCAR-8 ovarian,68.1 µM
same,TGI,PC-3 prostate,50.7 µM
same,TGI,RPMI-8226 leukemia,50.8 µM
same,TGI,RXF 393 renal,31.7 µM
same,TGI,SF-268 CNS,87.8 µM
same,TGI,SF-295 CNS,88 µM
same,TGI,SF-539 CNS,31.7 µM
same,TGI,SK-MEL-2 melanoma,30.6 µM
same,TGI,SK-MEL-28 melanoma,35 µM
same,TGI,SK-MEL-5 melanoma,24.8 µM
same,TGI,SK-OV-3 ovarian,> 100 µM
same,TGI,SN12C renal,30.8 µM
same,TGI,SNB-19 CNS,> 100 µM
same,TGI,SNB-75 CNS,66.3 µM
same,TGI,SR leukemia,60.7 µM
same,TGI,SW-620 colon,48.9 µM
same,TGI,T-47D breast,57.9 µM
same,TGI,TK-10 renal,49.4 µM
same,TGI,U251 CNS,48.4 µM
same,TGI,UACC-257 melanoma,40.7 µM
same,TGI,UACC-62 melanoma,30.4 µM
same,TGI,UO-31 renal,38.9 µM
NCCCCNCCCN1CC1,TGI,786-0 renal,5.75 µM
same,TGI,A498 renal,1.84 µM
same,TGI,A549 NSCLC,> 100 µM
same,TGI,BT-549 breast,17.4 µM
same,TGI,CAKI-1 renal,0.382 µM
same,TGI,COLO 205 colon,3.71 µM
same,TGI,DU-145 prostate,> 29.6 µM
same,TGI,EKVX NSCLC,18.3 µM
same,TGI,HCC-2998 colon,97.1 µM
same,TGI,HCT-116 colon,> 100 µM
same,TGI,HCT-15 colon,> 100 µM
same,TGI,HL-60(TB) leukemia,5.32 µM
same,TGI,HOP-62 NSCLC,5.83 µM
same,TGI,HOP-92 NSCLC,7.47 µM
same,TGI,HS 578T breast,2.14 µM
same,TGI,HT29 colon,> 42 µM
same,TGI,IGROV1 ovarian,> 21.5 µM
same,TGI,K-562 leukemia,> 26.4 µM
same,TGI,KM12 colon,24.4 µM
same,TGI,LOX IMVI melanoma,3.46 µM
same,TGI,M14 melanoma,> 100 µM
same,TGI,MALME-3M melanoma,> 91.9 µM
same,TGI,MCF7 breast,> 100 µM
same,TGI,MDA-MB-435,> 94.6 µM
same,TGI,MDA-N,> 100 µM
same,TGI,NCI-H226 lung,> 31.4 µM
same,TGI,NCI-H23 lung,16.2 µM
same,TGI,NCI-H460 lung,> 100 µM
same,TGI,NCI-H522 lung,19.9 µM
same,TGI,OVCAR-3 ovarian,8.98 µM
same,TGI,OVCAR-4 ovarian,0.733 µM
same,TGI,OVCAR-5 ovarian,> 82.9 µM
same,TGI,PC-3 prostate,> 100 µM
same,TGI,RPMI-8226 leukemia,> 100 µM
same,TGI,RXF 393 renal,1.05 µM
same,TGI,SF-268 CNS,> 100 µM
same,TGI,SF-295 CNS,> 100 µM
same,TGI,SF-539 CNS,2.59 µM
same,TGI,SK-MEL-28 melanoma,> 26 µM
same,TGI,SK-MEL-5 melanoma,9.67 µM
same,TGI,SNB-19 CNS,22.5 µM
same,TGI,SNB-75 CNS,1.92 µM
same,TGI,SR leukemia,52.9 µM
same,TGI,SW-620 colon,> 100 µM
same,TGI,T-47D breast,3.46 µM
same,TGI,TK-10 renal,> 100 µM
same,TGI,U251 CNS,28.9 µM
same,TGI,UACC-257 melanoma,> 100 µM
same,TGI,UACC-62 melanoma,91.1 µM
same,TGI,UO-31 renal,12.8 µM
CCOC(=O)c1ccc(C(=O)OCC)n1-c1cc2cc(c1)CSCc1cc(cc(-n3c(C(=O)OCC)ccc3C(=O)OCC)c1)CSC2,TGI,786-0 renal,> 10 µM
same,TGI,A549 NSCLC,> 10 µM
same,TGI,ACHN renal,> 10 µM
same,TGI,BT-549 breast,> 10 µM
same,TGI,CAKI-1 renal,> 10 µM
same,TGI,CCRF-CEM leukemia,> 10 µM
same,TGI,COLO 205 colon,> 10 µM
same,TGI,DU-145 prostate,> 10 µM
same,TGI,EKVX NSCLC,> 10 µM
same,TGI,HCC-2998 colon,> 10 µM
same,TGI,HCT-116 colon,> 10 µM
same,TGI,HCT-15 colon,> 10 µM
same,TGI,HL-60(TB) leukemia,> 10 µM
same,TGI,HOP-62 NSCLC,> 10 µM
same,TGI,HOP-92 NSCLC,> 10 µM
same,TGI,HS 578T breast,> 10 µM
same,TGI,HT29 colon,> 10 µM
same,TGI,IGROV1 ovarian,> 10 µM
same,TGI,K-562 leukemia,> 10 µM
same,TGI,KM12 colon,> 10 µM
same,TGI,LOX IMVI melanoma,> 10 µM
same,TGI,M14 melanoma,> 10 µM
same,TGI,MALME-3M melanoma,> 10 µM
same,TGI,MCF7 breast,> 10 µM
same,TGI,MDA-MB-231 breast,> 10 µM
same,TGI,MDA-MB-435,> 10 µM
same,TGI,MDA-N,> 10 µM
same,TGI,MOLT-4 leukemia,> 10 µM
same,TGI,NCI-H226 lung,> 10 µM
same,TGI,NCI-H23 lung,> 10 µM
same,TGI,NCI-H460 lung,> 10 µM
same,TGI,NCI-H522 lung,> 10 µM
same,TGI,NCI/ADR-RES ovarian,> 10 µM
same,TGI,OVCAR-3 ovarian,> 10 µM
same,TGI,OVCAR-4 ovarian,> 10 µM
same,TGI,OVCAR-5 ovarian,> 10 µM
same,TGI,OVCAR-8 ovarian,> 10 µM
same,TGI,PC-3 prostate,> 10 µM
same,TGI,RPMI-8226 leukemia,> 10 µM
same,TGI,RXF 393 renal,> 10 µM
same,TGI,SF-268 CNS,> 10 µM
same,TGI,SF-295 CNS,> 10 µM
same,TGI,SF-539 CNS,> 10 µM
same,TGI,SK-MEL-2 melanoma,> 10 µM
same,TGI,SK-MEL-28 melanoma,> 10 µM
same,TGI,SK-MEL-5 melanoma,> 10 µM
same,TGI,SK-OV-3 ovarian,> 10 µM
same,TGI,SN12C renal,> 10 µM
same,TGI,SNB-19 CNS,> 10 µM
same,TGI,SNB-75 CNS,> 10 µM
same,TGI,SR leukemia,> 10 µM
same,TGI,SW-620 colon,> 10 µM
same,TGI,T-47D breast,> 10 µM
same,TGI,TK-10 renal,> 10 µM
same,TGI,U251 CNS,> 10 µM
same,TGI,UACC-257 melanoma,> 10 µM
same,TGI,UACC-62 melanoma,> 10 µM
same,TGI,UO-31 renal,> 10 µM

# From PubChem BioAssay (NCI)
